Reference: paper PMC11219735, “Fluorescence lifetime multiplexing with fluorogen activating protein FAST variants” (Communications Biology, 2024)

Legend:
Experiment in all cases: spectrofluorometric titration of purified protein
Type in all cases: binding
[1] = biological target: T1, FAST-R52K (Fluorescence-Activating and Absorption-Shifting Tag) (Halorhodospira halophila, UniProt P16113, R52K/C69G/Y94W/T95M/F96I/D97P/Y98T/Q99S/M100R)
T1 construct: gene pyp

[2] = biological target: T2, FAST-P68K (Fluorescence-Activating and Absorption-Shifting Tag) (Halorhodospira halophila, UniProt P16113, P68K/C69G/Y94W/T95M/F96I/D97P/Y98T/Q99S/M100R)
T2 construct: gene pyp
T2 sequence (P16113 whole entry P68K/C69G/Y94W/T95M/F96I/D97P/Y98T/Q99S/M100R): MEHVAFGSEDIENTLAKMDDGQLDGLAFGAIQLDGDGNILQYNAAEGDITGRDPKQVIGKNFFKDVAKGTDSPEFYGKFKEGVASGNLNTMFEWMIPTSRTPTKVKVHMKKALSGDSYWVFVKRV

[3] = biological target: T3, FAST-P68T (Fluorescence-Activating and Absorption-Shifting Tag) (Halorhodospira halophila, UniProt P16113, P68T/C69G/Y94W/T95M/F96I/D97P/Y98T/Q99S/M100R)
T3 construct: gene pyp
T3 sequence (P16113 whole entry P68T/C69G/Y94W/T95M/F96I/D97P/Y98T/Q99S/M100R): as the sequence (P16113 whole entry P68K/C69G/Y94W/T95M/F96I/D97P/Y98T/Q99S/M100R) above, with K68T counted along it

[4] = biological target: T4, FAST-F62L (Fluorescence-Activating and Absorption-Shifting Tag) (Halorhodospira halophila, UniProt P16113, F62L/C69G/Y94W/T95M/F96I/D97P/Y98T/Q99S/M100R)
T4 construct: gene pyp
T4 sequence (P16113 whole entry F62L/C69G/Y94W/T95M/F96I/D97P/Y98T/Q99S/M100R): as the sequence (P16113 whole entry P68K/C69G/Y94W/T95M/F96I/D97P/Y98T/Q99S/M100R) above, with F62L, K68P counted along it

T1 sequence (P16113 whole entry R52K/C69G/Y94W/T95M/F96I/D97P/Y98T/Q99S/M100R): as the sequence (P16113 whole entry P68K/C69G/Y94W/T95M/F96I/D97P/Y98T/Q99S/M100R) above, with R52K, K68P counted along it

Row | SMILES | Kd [1] | Kd [2] | Kd [3] | Kd [4]
1 | COc1cc(/C=C2\N=C(C(F)(F)F)N(C)C2=O)c(OC)cc1O [25DOM-HBI-2T, (Z)-5-(4-hydroxy-2,5-dimethoxybenzylidene)-3-methyl-2-(trifluoromethyl)-3,5-dihydro-4H-imidazol-4-one] | 440 nM | 340 nM |  | 
2 | Cc1cc(/C=C2\SC(=S)NC2=O)c(C)cc1O [HBR-2,5-DM] | 46 nM | 84 nM | 90 nM | 
3 | COc1cc(/C=C2\SC(=S)NC2=O)c(OC)cc1O [HBR-DOM2, (Z)-5-(4-hydroxy-2,5-dimethoxybenzylidene)-2-thioxothiazolidin-4-ones] | 35 nM | 30 nM |  | 36 nM
